Earlier results in Sander's compilation of Henry's law constants (doi:10.1021/es8005783).

assay: Henry solubility constant Hcp at 298.15 K (mol/(m3 Pa)); details: reference: Hilal et al. (2008); cited value

First: C1=CCC=CC1 [1,4-cyclohexadiene]
Second: BrC(Br)(Br)Br [tetrabromomethane]
The “Henry solubility constant Hcp” value of the first is lower: 0.001 for the first, 0.02 for the second.

First: ClC=CCCl [1,3-dichloropropene]
Second: ClC(Cl)Br [bromodichloromethane]
The “Henry solubility constant Hcp” value of the first is lower: 0.0058 for the first, 0.0077 for the second.

Going from Cc1c(COC(=O)[C@@H]2[C@H](/C=C(\Cl)C(F)(F)F)C2(C)C)cccc1-c1ccccc1 [bifenthrin] to CCc1ccccc1CC [1,2-diethylbenzene], the “Henry solubility constant Hcp” value falls from 9.9 to 0.0012.

Compared with C=C(C)C(=O)OCC [2-methyl-2-propenoic acid, ethyl ester], CCC(C)N (stereo not drawn) [2-butanamine] is higher in “Henry solubility constant Hcp” value: 0.016 for the first, 0.065 for the second.

Compared with FC(F)(F)C(F)(Cl)Cl [1,1-dichlorotetrafluoroethane], FC(F)(Cl)Cl [dichlorodifluoromethane] is higher in “Henry solubility constant Hcp” value: 7.5e-06 for the first, 3.6e-05 for the second.

Going from ClC(Cl)=C(Cl)C(Cl)=C(Cl)Cl [hexachlorobutadiene] to ClC1=C(Cl)[C@]2(Cl)[C@H]3[C@H]([C@@H]4C=C[C@H]3C4)[C@@]1(Cl)C2(Cl)Cl [aldrin], the “Henry solubility constant Hcp” value rises from 0.00097 to 0.02.

Compared with CCCCCCCCC(=O)O [nonanoic acid], CCCN(CCC)CCC [N,N-dipropyl-1-propanamine] is lower in “Henry solubility constant Hcp” value: 6.9 for the first, 0.026 for the second.

First: CCc1cccc(CC)c1 [1,3-diethylbenzene]
Second: O=[N+]([O-])c1ccccc1 [nitrobenzene]
The “Henry solubility constant Hcp” value of the first is lower: 0.0038 for the first, 0.42 for the second.

Compared with FC(F)(F)Cl [chlorotrifluoromethane], ClC1=C(Cl)C2(Cl)C3C4OC4C(Cl)C3C1(Cl)C2(Cl)Cl (stereo not drawn) [heptachlorepoxide] is higher in “Henry solubility constant Hcp” value: 7.2e-06 for the first, 0.54 for the second.

Compared with COCC(C)O (stereo not drawn) [1-methoxy-2-propanol], CC(C)CN [2-methyl-1-propanamine] is lower in “Henry solubility constant Hcp” value: 11 for the first, 0.72 for the second.

Compared with CC(C)N [2-propanamine], CCCC(C)C [2-methylpentane] is lower in “Henry solubility constant Hcp” value: 0.22 for the first, 6.2e-06 for the second.

For ClC1=C(Cl)[C@]2(Cl)[C@@H]3[C@@H]4C[C@@H]([C@H]5O[C@@H]45)[C@@H]3[C@@]1(Cl)C2(Cl)Cl [dieldrin], the “Henry solubility constant Hcp” value is given as 0.17.
